From US11331375B2, “Compositions and methods for regulating leukocyte adhesion” (University of Virginia Patent Foundation, priority 2015, dated 2022)

Assays:
HUVEC = experiment: In vitro ATP release assay (luciferin:luciferase), HUVEC; type: cell-based, human
Method: In vitro Human arterial and venous ECs were seeded in 24-well plates pre-coated with 0.2% gelatin and grown to confluency. On the day of experiment, the media was removed from each well and cells were carefully washed twice with warm serum free basal EC medium supplemented with 1% BSA. Cells were then incubated in 300 μL of fresh basal EC medium supplemented with 1% BSA for 30 minutes at 37° C. to allow degradation of extracellular ATP released due to mechanical stimulation during washes. Endogenous ecto-nucleotidases were inhibited by incubating EC monolayers with 300 μM ARL 67156 (Tocris) for 30 minutes at 37° C. Cells were then stimulated with recombinant human TNFα (R&D Systems). For dose response experiments, ECs were incubated with 0.1, 1, 5, 10, 50, or 100 ng/mL recombinant TNFα for 30 minutes at 37° C. For time-course experiments, ECs were stimulated with 10 ng/mL recombinant TNFα for different time points up to 1 hour. In experiments where pharmacological inhibitors were employed, ECs were incubated with antagonists in parallel with ARL 67156 for 30 minutes. To inhibit TNFR1, ECs were incubated with the peptide antagonist of the receptor WP9QY (10 μM; Anaspec). […] Cx hemichannels were inhibited with lanthanum (La^3+; 100 μM; Sigma) and Panx1 channels were blocked with carbenoxolone (CBX; 50 μM; Sigma) and the inhibitory peptide ^10panx1 (200 μM; Genscript). […] The role of caspase activation was assessed by inhibition with the pan-caspase blocker Q-VD-OPh (100 μM; Sigma). Following stimulation with TNFα or vehicle, 150 μL of the cell supernatant was collected and immediately placed into pre-chilled 1.5 mL Eppendorf tubes on ice. All samples were centrifuged at 10,000×g for 5 minutes and 50 μL of each sample was transferred to a white, opaque 96-well plate. Using a FluoStar Omega luminometer, 50 μL of luciferin:luciferase reagent (ATP bioluminescence assay kit HSII; Roche) was injected into each well and luminescence was recorded following a 5s orbital mix. ATP concentration in each sample was calculated from a standard curve for all experiments. Data are presented as a % change in ATP release from baseline (i.e. unstimulated cells) and expressed as mean±SEM (n=5 independent experiments with triplicate measurements).

HCoAEC = experiment: In vitro ATP release assay, HCoAEC; type: cell-based, human
Method: In vitro Human arterial and venous ECs were seeded in 24-well plates pre-coated with 0.2% gelatin and grown to confluency. On the day of experiment, the media was removed from each well and cells were carefully washed twice with warm serum free basal EC medium supplemented with 1% BSA. Cells were then incubated in 300 μL of fresh basal EC medium supplemented with 1% BSA for 30 minutes at 37° C. to allow degradation of extracellular ATP released due to mechanical stimulation during washes. Endogenous ecto-nucleotidases were inhibited by incubating EC monolayers with 300 μM ARL 67156 (Tocris) for 30 minutes at 37° C. Cells were then stimulated with recombinant human TNFα (R&D Systems). For dose response experiments, ECs were incubated with 0.1, 1, 5, 10, 50, or 100 ng/mL recombinant TNFα for 30 minutes at 37° C. […] The role of caspase activation was assessed by inhibition with the pan-caspase blocker Q-VD-OPh (100 μM; Sigma). […] Using a FluoStar Omega luminometer, 50 μL of luciferin:luciferase reagent (ATP bioluminescence assay kit HSII; Roche) was injected into each well and luminescence was recorded following a 5s orbital mix. ATP concentration in each sample was calculated from a standard curve for all experiments. Data are presented as a % change in ATP release from baseline (i.e. unstimulated cells) and expressed as mean±SEM (n=5 independent experiments with triplicate measurements).

Substance: TNFα
- TNFα dose with significant ATP release response (HUVEC; EC ATP release, range tested 0.1-100 ng/mL): ≥ 10 ng/mL
- ATP release on cytokine stimulation (HUVEC; HUVEC monolayers): significant increase
- TNFα concentration giving maximal accumulation of extracellular ATP (HUVEC; cultured venous ECs): 10 ng/mL
- time to maximal accumulation of extracellular ATP (HUVEC; cultured venous ECs, 10 ng/mL TNFα): approximately 10 minutes
- ATP release on cytokine stimulation (HCoAEC): failed to release ATP
